# Reference: US7947675B2, “Trifluoromethylbenzamide derivatives and therapeutic uses thereof” (Merck Patent GmbH, priority 2005, dated 2011)
# Experiments:
# [1] = molecular target: T1, CETP (cholesteryl ester transfer protein) (Homo sapiens, UniProt P11597); assay: In vitro screening test: inhibitory effect on the activity of CETP (3H-cholesterol ester transfer from HDL to biotinylated LDL, SPA); format: biochemical; conditions: incubation 24 hours at 37° C., relative to control (CETP+solvent)
# T1 sequence (P11597 18-493): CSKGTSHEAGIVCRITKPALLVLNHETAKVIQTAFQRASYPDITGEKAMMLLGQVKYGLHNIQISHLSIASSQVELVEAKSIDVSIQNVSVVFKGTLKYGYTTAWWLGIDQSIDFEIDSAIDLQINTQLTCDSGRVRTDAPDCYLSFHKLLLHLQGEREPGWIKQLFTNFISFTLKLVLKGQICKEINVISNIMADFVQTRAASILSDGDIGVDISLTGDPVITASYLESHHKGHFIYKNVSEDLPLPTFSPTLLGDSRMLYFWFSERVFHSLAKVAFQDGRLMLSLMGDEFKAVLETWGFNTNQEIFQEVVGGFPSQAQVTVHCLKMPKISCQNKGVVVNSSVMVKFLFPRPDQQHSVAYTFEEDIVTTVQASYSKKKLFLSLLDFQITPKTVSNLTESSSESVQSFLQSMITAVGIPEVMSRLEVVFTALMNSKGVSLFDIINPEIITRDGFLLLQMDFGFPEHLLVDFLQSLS
# Description: Measurement of an inhibitory effect on the activity of CETP (cholesteryl ester transfer protein)
# The measurement of the CETP activity is performed by measuring the transfer of ^3H-cholesterol ester from the HDLs to the biotinylated LDLs.
# The transfer is measured after incubation for 24 hours in the presence of donor (HDL), acceptor (LDL) and CETP, with or without inhibitor. The reaction is stopped and the transfer measured by addition of SPA streptavidin beads (Amersham).
# The increase in scintillation is proportional to the transfer of ^3H-cholesterol ester via CETP to the LDLs.
# To perform the test, 10 μl of ^3H-cholesterol ester HDL, 10 μl of biotinylated LDL and 10 μl of HEPES buffer (50 mM HEPES/[…]/0.1% BSA/0.05% NaN3, pH 7.4) are mixed with 10 μl of CETP (1 mg/ml) and the test product (1 μl of the stock solution at 10 mM in DMSO) or 1 μl of DMSO alone in a 96-well microplate (Costar).
# Screening is performed at a final concentration of 10 μM per well in 0.1% of solvent.
# The plates are then covered with a film, shaken and incubated under a humid atmosphere at 37° C. for 24 hours.
# 200 μl of SPA-streptavidin beads solution (Amersham, TRKQ 7005) are added and the radioactivity reading is taken 1 hour later on a scintillation counter (Top Count, Packard) with a reading time of 0.5 minute.
# The inhibition results are expressed relative to the control test (CETP+solvent).
# The IC 50 values are determined and expressed in μM.
IC50 [1],melting point,SMILES
930 nM,–,"Nc1cc(C(F)(F)F)cc(C(=O)Nc2ccc(Cl)c(Cl)c2)c1N1CCCCC1 [Example 2, 3-Amino-N-(3,4-dichlorophenyl)-2-piperid-1-yl-5-trifluoromethylbenzamide]"
750 nM,–,"CC1CCN(c2c(Cl)cc(C(F)(F)F)cc2C(=O)Nc2ccc(Cl)c(Cl)c2)CC1 [Example 6, 3-Chloro-N-(3,4-dichlorophenyl)-2-(4-methylpiperid-1-yl)-5-trifluoromethylbenzamide]"
1450 nM,–,"O=C(Nc1ccc(Cl)c(Cl)c1)c1cc(C(F)(F)F)cc([N+](=O)[O-])c1N1CCCCC1 [Example 1, N-(3,4-Dichlorophenyl)-3-nitro-2-piperid-1-yl-5-trifluoromethylbenzamide]"
890 nM,–,"O=C(Nc1ccc(Cl)c(Cl)c1)c1cc(C(F)(F)F)cc(Br)c1N1CCCCC1 [Example 3, 3-Bromo-N-(3,4-dichlorophenyl)-2-piperid-1-yl-5-trifluoromethylbenzamide]"
–,175 °C,"N#Cc1cc(C(F)(F)F)cc(C(=O)Nc2ccc(Cl)c(Cl)c2)c1N1CCCCC1 [Example 4, 3-Cyano-N-(3,4-dichlorophenyl)-2-piperid-1-yl-5-trifluoromethylbenzamide]"
